Some test systems named below: NCI-H226 lung; HCT-15 colon; RXF 393 renal; EKVX NSCLC; SW-620 colon; SK-MEL-2 melanoma; SN12C renal; SF-295 CNS; DU-145 prostate; HOP-62 NSCLC.
Holding throughout (assay): NCI-60 cell line screen, 48 h

Several values for one entry are separate records, joined by “and”; a condition that tells them apart may be missing. Equal entries are not always repeated.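 Values below derive from 48-hour exposures of cells grown in 96-well plates, with endpoints linearly interpolated between the two concentrations bracketing the appropriate inhibition level. GI50 is the concentration that inhibits growth by half. Definition used: TGI = concentration required for complete inhibition of growth.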 Some results are limits rather than exact numbers.

Consider `CCN1C(=O)N(CC)C2C1NN=c1s/c(=C\c3cccc([N+](=O)[O-])c3)c(=O)n12` (configuration not stated), for which the GI50 is 8.25 µM in the assay with NCI-H226 lung; 0.0486 µM in the assay with HCT-15 colon; 0.0708 µM in the assay with RXF 393 renal; 0.382 µM in the assay on EKVX NSCLC; 0.0468 µM with SW-620 colon; 0.453 µM in the assay with SK-MEL-2 melanoma. Further, the GI50 in the assay on SN12C renal is 0.149 µM; with SF-295 CNS, 0.0423 µM; with DU-145 prostate it was 0.101 µM; in the assay on HOP-62 NSCLC, 0.104 µM. The TGI in the assay on NCI-H226 lung, in the assay on HCT-15 colon, with RXF 393 renal, in the assay with EKVX NSCLC, with SW-620 colon and with SK-MEL-2 melanoma was greater than 100 µM in each case. The TGI with SN12C renal, in the assay on SF-295 CNS, with DU-145 prostate and in the assay with HOP-62 NSCLC was greater than 100 µM each time.

Regarding `CCN(CC)CCCNc1[nH]ncc2c(C)c3nc4ccccc4c3cc12`, the GI50 in the assay on NCI-H226 lung was 0.566 µM; with HCT-15 colon it was 6.54 µM; with RXF 393 renal, 0.878 µM; in the assay on EKVX NSCLC, 0.887 µM; in the assay with SW-620 colon, 0.319 µM and 0.529 µM; in the assay with SK-MEL-2 melanoma, 1.59 µM. Besides, the GI50 was 0.585 µM in the assay with SN12C renal, 1.3 µM with SF-295 CNS, 0.555 µM in the assay on DU-145 prostate and 1.08 µM in the assay with HOP-62 NSCLC. The TGI with NCI-H226 lung is 2.5 µM and 2.09 µM; in the assay on HCT-15 colon it was 21.4 µM and 36.5 µM; in the assay with RXF 393 renal it was 2.25 µM and 5.78 µM; in the assay with EKVX NSCLC, 3.44 µM and 8.38 µM; in the assay on SW-620 colon it was 2.92 µM and 6.98 µM; in the assay on SK-MEL-2 melanoma it was 3.11 µM and 7.17 µM. In addition, the TGI in the assay with SN12C renal is 3.87 µM and 3.6 µM; in the assay on SF-295 CNS, 5.27 µM and 11.8 µM; in the assay on DU-145 prostate it was 11.2 µM and 5.62 µM; with HOP-62 NSCLC, 2.58 µM and 13.3 µM.

For `CC1(C)CC(=O)c2c(ccc(C(=O)C[C@@H](N)CO)c2N)O1`, the GI50 is 0.871 µM in the assay on NCI-H226 lung; 0.177 µM in the assay with HCT-15 colon; 1.45 µM in the assay with RXF 393 renal; 19 µM in the assay on EKVX NSCLC; 0.234 µM in the assay with SW-620 colon; 1.04 µM in the assay with SK-MEL-2 melanoma. Moreover, the GI50 in the assay with SN12C renal was 0.788 µM; with SF-295 CNS, 1.29 µM; with DU-145 prostate, 0.849 µM; in the assay with HOP-62 NSCLC, 0.643 µM. For the same compound, the TGI is greater than 37.4 µM with NCI-H226 lung; 12.2 µM in the assay on HCT-15 colon; 7.44 µM in the assay on RXF 393 renal; greater than 100 µM with EKVX NSCLC; 12.7 µM with SW-620 colon; 9.33 µM in the assay on SK-MEL-2 melanoma. Also, the TGI in the assay on SN12C renal is greater than 100 µM; with SF-295 CNS, greater than 54.9 µM; in the assay with DU-145 prostate, greater than 93.1 µM; in the assay on HOP-62 NSCLC it was greater than 49.1 µM.

Consider `COc1ccc2[nH]c(O)c(/C=c3/ccc4c(c3)N=C(c3ccc(F)cc3)N=4)c2c1`, for which the GI50 is 2.5 µM in the assay on NCI-H226 lung; 5.83 µM in the assay on HCT-15 colon; 1.95 µM in the assay with RXF 393 renal; 14 µM in the assay with EKVX NSCLC; 4.34 µM in the assay on SW-620 colon; 5.72 µM with SK-MEL-2 melanoma. Moreover, the GI50 in the assay with SN12C renal was 4.88 µM; in the assay with SF-295 CNS it was 7.33 µM; with DU-145 prostate, 2.23 µM; in the assay with HOP-62 NSCLC, 1.93 µM. Besides, the TGI was 6.33 µM in the assay on NCI-H226 lung; greater than 100 µM with HCT-15 colon; 4.06 µM in the assay on RXF 393 renal; greater than 100 µM with EKVX NSCLC; greater than 100 µM in the assay with SW-620 colon; 44.8 µM in the assay on SK-MEL-2 melanoma. Further, the TGI in the assay with SN12C renal is greater than 100 µM; in the assay on SF-295 CNS, greater than 100 µM; with DU-145 prostate it was 6.87 µM; in the assay on HOP-62 NSCLC, 3.91 µM.

Consider `COc1cc(C2C3=C(COC3=O)Nc3cc4c(cc32)OCO4)cc2c1OCO2` (configuration not stated), for which the GI50 in the assay on NCI-H226 lung was 0.0827 µM; in the assay with HCT-15 colon, 0.109 µM; in the assay on RXF 393 renal it was 0.0304 µM; in the assay with SW-620 colon it was 0.0651 µM; in the assay on SK-MEL-2 melanoma, 0.113 µM; in the assay on SN12C renal, 0.154 µM. In addition, the GI50 with SF-295 CNS was 0.0299 µM; with DU-145 prostate, 0.0832 µM; with HOP-62 NSCLC it was 0.0762 µM. The TGI in the assay with HCT-15 colon is greater than 100 µM; with RXF 393 renal it was greater than 100 µM; in the assay on EKVX NSCLC, greater than 100 µM; in the assay with SW-620 colon it was greater than 100 µM; in the assay with SK-MEL-2 melanoma, greater than 26 µM; in the assay with SN12C renal, greater than 100 µM. In addition, the TGI in the assay on DU-145 prostate was 0.459 µM; with HOP-62 NSCLC it was greater than 87.2 µM.

Take `Oc1ccccc1C=Nc1ccccc1N=Cc1ccccc1O.[Cu+2]`: the GI50 in the assay on NCI-H226 lung is 3.72 µM; in the assay on HCT-15 colon it was 5.81 µM; in the assay on RXF 393 renal, 13.2 µM; in the assay with EKVX NSCLC, 8.62 µM; in the assay with SW-620 colon, 10.6 µM; in the assay on SK-MEL-2 melanoma, 5.81 µM. Besides, the GI50 with SN12C renal is 4.84 µM; in the assay with SF-295 CNS, 5.91 µM; in the assay on DU-145 prostate, 5.13 µM; in the assay with HOP-62 NSCLC, 2.99 µM. The TGI with NCI-H226 lung stood at 16.3 µM; in the assay on HCT-15 colon it was 24.8 µM; in the assay with RXF 393 renal, 26.6 µM; with EKVX NSCLC, 23.6 µM; in the assay with SW-620 colon it was 24.4 µM; in the assay with SK-MEL-2 melanoma it was 19.5 µM. For the same compound, the TGI stood at 18.7 µM in the assay on SN12C renal, 19.9 µM in the assay with SF-295 CNS, 18.5 µM with DU-145 prostate and 11.7 µM in the assay with HOP-62 NSCLC.

Turning to `CC(OC(=O)N(N(CCCl)S(C)(=O)=O)S(C)(=O)=O)c1ccc([N+](=O)[O-])cc1` (configuration not stated), the GI50 was 29.1 µM with NCI-H226 lung; greater than 100 µM in the assay with HCT-15 colon; greater than 100 µM in the assay on RXF 393 renal; 23.4 µM in the assay on EKVX NSCLC; greater than 67.9 µM in the assay on SW-620 colon; greater than 100 µM with SK-MEL-2 melanoma. The GI50 is 34.9 µM in the assay with SN12C renal, 34.5 µM in the assay on SF-295 CNS, 24 µM with DU-145 prostate and 29.4 µM with HOP-62 NSCLC. Moreover, the TGI with NCI-H226 lung is 79.3 µM; in the assay with HCT-15 colon, greater than 100 µM; in the assay on RXF 393 renal, greater than 100 µM; with EKVX NSCLC, greater than 76.9 µM; in the assay with SW-620 colon, greater than 100 µM; with SK-MEL-2 melanoma, greater than 100 µM. For the same compound, the TGI in the assay on SN12C renal, with SF-295 CNS, in the assay with DU-145 prostate and with HOP-62 NSCLC was greater than 100 µM in each case.

Values taken from PubChem BioAssay (NCI).
